In turn, `O=C1N(Cc2ncccc2C(F)(F)F)c2ccccc2C12COc1ccc3c(c12)OCCO3` (stereo not drawn) had a melting point of 245 to 247 °C. For `NNC(=O)c1cnc2n(c1=O)CCC2` the value was 180 to 181 °C; for `O=C(NCc1ccn(-c2cc3nc(C(=O)O)c(=O)[nH]c3cc2C(F)(F)F)c1)Nc1ccc(F)cc1`, 168 to 170 °C; for `CCC(=Cc1ccccc1)C(=O)c1ccc(OC)c(Cl)c1Cl`, 127 to 130 °C. For `COc1ccc2nc(NC(=O)COC(=O)c3ccccc3)sc2c1` the value was 203 to 204 °C; for `COc1ccc(-c2coc3ccc(-c4nnc(SCc5cccc(Cl)c5)o4)cc23)cc1`, 155 to 156 °C. To `Cc1c(-c2ccccc2)[nH]c(=O)n1C1CCN(Cc2cccc(Cl)c2)CC1` belongs 248 to 249 °C; to `CN1C(=O)C(C)(C)N=C(c2ccccc2Cl)c2cc([N+](=O)[O-])cc(Cl)c21`, 254 °C.

Consider `COC(=O)c1ccc(N2C(=O)CCC2(CN=[N+]=[N-])COC(=O)c2ccccc2)c([N+](=O)[O-])c1` (stereo not drawn), for which the melting point lay within 214 to 215 °C.

With `CC(C)Cn1c(CNC(=O)OC(C)(C)C)c(-c2ccccc2)c2cc(OC(C)(C)C(N)=O)ccc2c1=O`, the melting point was in the range of 219 to 220 °C. For `Nc1ccsc1C(=O)NCC1CCN(CC2COc3ccccc3O2)CC1` (stereo not drawn) the value was 144 to 146 °C; for `Cc1oc(-c2ccccc2)nc1COc1ccc(C=O)cn1`, 116 to 117 °C; for `O=C(c1c(Cl)cccc1Cl)P(=O)(C(=O)c1c(Cl)cccc1Cl)c1ccccc1`, 194 °C. Regarding `CCCCOC(=O)CS(=O)(=O)C=C1SC=CS1`, the melting point lay within 87 to 88 °C. To `N#Cc1ccccc1N1CCN(C[C@@H](O)COc2cccc(-c3noc4ccsc34)c2)CC1` belongs 87 to 89 °C; to `C=CCNC(=O)C(C)=Cc1cc([N+](=O)[O-])ccc1Cl`, 111 to 112 °C. To `O=C1c2ccccc2C(=O)N1OCCCN1CCN(c2ccc3ccccc3n2)CC1` belongs 158 to 160 °C; to `Cc1ccc2c(c1)c(N1CCN(C(=O)c3cccs3)CC1)c(C#N)c(=O)n2CCN1CCCC1`, 139 to 143 °C; to `CS(=O)(=O)OCC1CCN(C(=O)c2ccccc2)CC1`, 87 to 90 °C. For `CCOC(=O)c1ncc2[nH]c3cccc(OC4CCC4)c3c2c1COC` the value was 196 to 197 °C. As to `COc1ccc(C(=O)c2c(N)sc3c2CCN(C(=O)c2ccccc2)C3)cc1OC`, the melting point is 143 to 145 °C. For `CS(=O)(=O)c1c(N)nc(N)nc1Cl` the value was 256 to 258 °C; for `O=C1c2ccccc2C(O)(c2ccccc2)N1CCc1ccc(O)cc1` (stereo not drawn), 188 °C. For `CCC(Oc1ccc(S(=O)(=O)c2ccc(C)nc2Nc2c(C)cc(C)cc2C)cc1)C(=O)OC` (stereo not drawn) the value was 111 to 113 °C; for `O=C1NCC(Cc2cccc(Cl)c2)O1` (stereo not drawn), 113 to 114 °C; for `CCCCCCC(Cc1ccc(OCCN2CCCCCC2)cc1)(C(=O)NO)S(=O)(=O)c1ccc(OC)cc1` (stereo not drawn), 65 °C. On to `COc1nc(NC(=O)NS(=O)(=O)Cc2ccccc2C(C)OC(C)=O)nc(OC)n1` (stereo not drawn), for which the melting point lay in the range of 90 to 95 °C. Regarding `CCOC(=O)C1=C(C)NN=C(C(=O)OC)C1c1cccc([N+](=O)[O-])c1` (stereo not drawn), the melting point came out at 176 °C. For `COc1cc2ncnc(Nc3ccc(OCc4ccccn4)c(C)c3)c2cc1OCCN(C)C` the value was 125 to 126 °C. The compound `Cc1nc(-c2cc(Cl)ccc2Cl)n2c1nnc1cc(F)ccc12` had a melting point of 186 to 190 °C. `CN1CCN(c2ccc(N/C=C3\C(=O)NC(=O)c4ccc(I)cc43)cc2)CC1`: the melting point was in the range of 220 to 221 °C. For `COc1ccc(CCC(=O)NNC(=O)c2ccc3ncsc3c2)cc1C(F)(F)F` the value was 208 to 209 °C; for `O=C(NCCc1ccc(F)cc1)OCc1ccccc1`, 51 to 52 °C; for `COc1ccc(C(=O)NC(=O)Nc2cccc3c2CC(=O)N3)cc1`, 276 to 279 °C. To `CCCC=Cc1c(C(C)C)nc(C(C)C)c(C(=O)OCC)c1-c1ccc(CC)cc1` belongs 67 to 68 °C; to `CCOC(=O)COc1cccc2c1OCC(Br)C2=O` (stereo not drawn), 92 to 93 °C. `O=C(C=Cc1ccc(Cl)cc1)NN1CC(=O)NC1=O` gave a melting point of 230 to 235 °C.

Turning to `CC(C(=O)n1c(=O)oc2ccccc21)C(O)c1ccccc1` (stereo not drawn), the melting point was in the range of 155 to 158 °C. For `COC(=O)/C(=C/C=C/c1cc2cc(OC)ccc2[nH]1)OC` the value was 150 to 151 °C. For `CSc1ccc(C=CC(=O)c2ccc([N+](=O)[O-])cc2)cc1` the value was 160 °C; for `CN(CCO)c1nc2ccccc2o1`, 62 to 63 °C; for `CCN(CC)c1ccc(C(O)C#Cc2ccc(C(=O)O)c(O)c2)cc1C(C)(C)C` (stereo not drawn), 245 °C. For `CC(C)(O)c1ccc(CNC(=O)c2cccnc2Oc2ccc3ncsc3c2)cc1`, the melting point is 195 to 197 °C. To `Cn1nnc2ccc3nc(O)c(O)nc3c21` belongs > 300 °C; to `CC1=C(C(=O)O)C(C)(C)CCC1=O`, 181 to 183 °C; to `O=C(c1ccc(OCc2ccccc2)cc1O)c1ccc(OCc2ccccc2)cc1O`, 140 to 142 °C.

Regarding `CCCc1cccn2c(=O)c(-c3nnn[nH]3)cnc12`, the melting point lay in the range of 269 to 272 °C. To `C=CCON=C(CCC)C1=C(O)CC(c2ccc(OC)c(NC(C)=O)c2)CC1=O` (stereo not drawn) belongs 136 to 137 °C. To `N[C@@H](Cc1c[nH]c2ccccc12)C(=O)N(N)C(=O)[C@H](Cc1c[nH]cn1)NC(=O)[C@@H]1CCC(=O)N1` belongs 165 to 169 °C; to `CCCCCc1c(C(C)C)nc(C(C)C)c(CCO)c1-c1ccc(F)cc1`, 81 to 83 °C. To `NC(=O)c1ccc(OCCNCC(O)c2ccccc2)cc1O` (stereo not drawn) belongs 141 to 142 °C; to `C(#Cc1ccncc1)c1ccccc1`, 51 to 53 °C. On to `CCOC(=O)[C@H](Cc1cccc(Oc2ccc(O)cc2)c1)NC(=O)C(F)(F)F`, for which the melting point fell in the range of 109 to 111 °C. For `CC(C)(Oc1ccc(C#N)cc1)C(O)Cc1ccncn1` (stereo not drawn) the value was 96 to 98 °C; for `COc1ccc(Cc2nc3cc(Cl)cc(CC(N)=O)c3o2)cc1OC1CCCC1`, 162 to 164 °C; for `O=C(CCCCl)c1ccc2oc3ccc(C(=O)CCCCl)cc3c2c1`, 102 to 104 °C. For `COc1ccc(CCNC(=O)C2CCCCC2)cc1OC` the value was 110 to 111 °C. To `Cc1ccc(S(=O)(=O)O[C@H](C)COc2c(N)ccc(F)c2F)cc1` belongs 37 to 38 °C. For the compound `CC1=C(C(=O)O)N2C(=O)C(=NSc3ccc(C)cc3)C2SC1` (stereo not drawn), the melting point was 186 to 187 °C. To `CCOC(=O)c1cn(-c2cc(N)c(F)cc2F)c2c(OC)c(F)c(F)cc2c1=O` belongs 159 to 162 °C; to `CN(C)c1cc(CC(C#N)CNc2ccccc2)cc(N(C)C)c1N(C)C` (stereo not drawn), 179 to 181 °C. For `COc1cc(Br)c(C(C)=NOCc2ccc([N+](=O)[O-])cc2)cc1O` the value was 137 to 138 °C.

Take `O=S(CCc1ccccc1)c1nc2cnccc2[nH]1` (stereo not drawn): the melting point is 171 to 174 °C. For `CN1CCOc2cc(-c3cnc4[nH]cc(C(=O)C5(C)CCCCC5)c4n3)ccc21` the value was 243 to 244 °C; for `O=C(c1c[nH]c2cc(Br)ccc12)C(F)(F)F`, 258 to 260 °C; for `CN1CCc2c(CO)csc2C(c2ccccc2)C1` (stereo not drawn), 115 °C. Compound `Cc1cccc(C)c1Oc1cc2c(cc1Cl)C=C(C(=O)O)C(C(F)(F)F)O2` (stereo not drawn) gave a melting point of 253 to 259 °C. The compound `Clc1ccc2c(c1)CCc1cccnc1C2N1CCNCC1` (single isomer, unassigned; (+)) came in with a melting point of 153 to 155 °C. To `CC(=O)N1CCN(C(C)c2ccc(-c3ccc(Cl)cc3)cc2)CC1` (stereo not drawn) belongs 120 to 121 °C; to `CCCCCCCCCCCCn1nnc(C(C(=O)Nc2c(C(C)C)cccc2C(C)C)N2CCSCC2)n1` (stereo not drawn), 97 to 98 °C. Compound `O=C(Oc1ccc(Cl)cn1)c1cc2cc([N+](=O)[O-])ccc2oc1=O` displayed a melting point of 287 to 289 °C. For `CC(=O)c1cc(C)n(CCO)n1` the value was 78 to 79 °C; for `CCC#CCOc1cc2c(cc1C=O)C(C)(C)CCC2(C)C`, 90 to 91 °C.

As for `O=c1[nH]c2cc(Cl)c(F)c([N+](=O)[O-])c2[nH]c1=O`, the melting point is 308 to 310 °C. To `CNC(=O)c1cnc(Cl)c(Cl)c1` belongs 134 to 138 °C; to `Cn1cncc1C(O)(c1ccc(C(=O)O)cc1)c1ccc2c(c1)c(-c1cccc(Cl)c1)cc(=O)n2C` (stereo not drawn), > 260 °C; to `COc1cccc([C@]23CCN(C)C(=O)[C@@H]2CCC2(C3)OCCO2)c1` (relative stereo), 180 to 181 °C. In turn, `CC(C)(C(=O)c1ccc(F)cc1)N1CCOCC1` showed a melting point of 63 to 66 °C.

Compound `COc1ccc(C(=O)Nc2ccccc2)cc1NC(=S)Nc1cccnc1` showed a melting point of 178 to 179 °C. For `CC12CCC3c4ccc(C(=O)O)cc4CCC3C1CCC2C(=O)CCc1ccc(F)cc1` (stereo not drawn) the value was 224 to 227 °C; for `Fc1ccc(-c2nc(-c3ccc[nH]3)[nH]c2-c2ccc(F)cc2)cc1`, 276 °C; for `CN(C)C(=Cc1ccccc1[N+](=O)[O-])C(=O)CBr`, 125 to 127 °C. For `COc1ccc(NC(=O)OC(C)(C)C)c(C)c1` the value was 80 to 82 °C; for `O=C(CN1CCOCC1)Nc1ccc2c(c1)Cc1cn[nH]c1-2`, 141 to 148 °C; for `CN1C(=O)C(C)(C)N=C(c2ccccc2F)c2cc(NC(=O)OCc3ccccc3)cc(Cl)c21`, 125 to 127 °C. To `COc1ccc(N2CCN(c3c(C)c(C)c4c(c3C)C(O)(C3CCCCC3)C(C)(C)O4)CC2)cc1` (stereo not drawn) belongs 166 to 167 °C. In turn, `CC(=O)NNc1ccc(N=C=S)cc1` yielded a melting point of 172 to 174 °C.

Turning to `CCOc1nc2c(N)nc3cccnc3c2n1[C@@H](C)c1ccccc1`, the melting point is 187 to 190 °C.

These data come from a melting point compilation (Tetko et al.; mined from patent text by program, amines drawn as free bases though some values may be those of a salt).
